Measured values reported in article PMC7366380, “Discovery of a Potent and Selective Covalent Inhibitor and Activity-Based Probe for the Deubiquitylating Enzyme UCHL1, with Antifibrotic Activity” (Journal of the American Chemical Society, 2020).
Several values for one entry are separate records, joined by “and”; a condition that tells them apart may be missing. Identical values can stand only once.

Experiments:
Experiment in all cases: In-cell proteome-wide competitive ABPP, HEK293: other DUBs and proteins
[1] = molecular target: DUBs and other proteins in HEK293 cells (Homo sapiens, UniProt P54578); details: replicates A-C; for Log2 reporter intensity values: USP14: competition with ABP 2, DMSO substract (FC); for Log2 reporter intensity values: USP14, DMSO subtracted
Sequence of DUBs and other proteins in HEK293 cells (Homo sapiens, UniProt P54578) (P54578 whole entry): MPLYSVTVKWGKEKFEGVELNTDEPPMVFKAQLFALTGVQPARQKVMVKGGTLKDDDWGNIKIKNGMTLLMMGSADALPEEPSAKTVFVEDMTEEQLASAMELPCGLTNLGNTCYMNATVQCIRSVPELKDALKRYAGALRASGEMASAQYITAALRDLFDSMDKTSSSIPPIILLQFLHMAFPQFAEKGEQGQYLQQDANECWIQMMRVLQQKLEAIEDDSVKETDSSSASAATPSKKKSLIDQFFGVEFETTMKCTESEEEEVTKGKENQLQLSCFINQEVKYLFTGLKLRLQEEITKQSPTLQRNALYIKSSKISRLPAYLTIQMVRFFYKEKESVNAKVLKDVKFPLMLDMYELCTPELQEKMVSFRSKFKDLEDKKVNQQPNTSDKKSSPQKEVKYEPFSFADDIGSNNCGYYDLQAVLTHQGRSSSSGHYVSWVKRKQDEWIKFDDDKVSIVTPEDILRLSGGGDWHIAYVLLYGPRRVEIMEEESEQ

[2] = molecular target: DUBs and other proteins in HEK293 cells (Homo sapiens, UniProt Q96BN8); details: replicates A-C; for Log2 reporter intensity values: OTULIN: competition with ABP 2, DMSO substract (FC); for Log2 reporter intensity values: OTULIN, DMSO subtracted
Sequence of DUBs and other proteins in HEK293 cells (Homo sapiens, UniProt Q96BN8) (Q96BN8 whole entry): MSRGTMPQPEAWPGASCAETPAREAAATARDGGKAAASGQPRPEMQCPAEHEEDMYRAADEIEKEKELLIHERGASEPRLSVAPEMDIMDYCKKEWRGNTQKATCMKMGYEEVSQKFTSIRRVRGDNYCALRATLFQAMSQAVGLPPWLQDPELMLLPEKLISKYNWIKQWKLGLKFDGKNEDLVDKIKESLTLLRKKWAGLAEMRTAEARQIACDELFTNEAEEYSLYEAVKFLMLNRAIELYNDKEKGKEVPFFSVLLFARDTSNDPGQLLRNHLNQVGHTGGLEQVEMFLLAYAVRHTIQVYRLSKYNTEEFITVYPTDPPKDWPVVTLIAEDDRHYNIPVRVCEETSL

[3] = molecular target: T1, DUBs and other proteins in HEK293 cells (Homo sapiens, UniProt Q96RU2); details: replicates A-C; for Log2 reporter intensity values: USP28: competition with ABP 2, DMSO substract (FC); for Log2 reporter intensity values: USP28, DMSO subtracted
T1 sequence (Q96RU2 1-1077): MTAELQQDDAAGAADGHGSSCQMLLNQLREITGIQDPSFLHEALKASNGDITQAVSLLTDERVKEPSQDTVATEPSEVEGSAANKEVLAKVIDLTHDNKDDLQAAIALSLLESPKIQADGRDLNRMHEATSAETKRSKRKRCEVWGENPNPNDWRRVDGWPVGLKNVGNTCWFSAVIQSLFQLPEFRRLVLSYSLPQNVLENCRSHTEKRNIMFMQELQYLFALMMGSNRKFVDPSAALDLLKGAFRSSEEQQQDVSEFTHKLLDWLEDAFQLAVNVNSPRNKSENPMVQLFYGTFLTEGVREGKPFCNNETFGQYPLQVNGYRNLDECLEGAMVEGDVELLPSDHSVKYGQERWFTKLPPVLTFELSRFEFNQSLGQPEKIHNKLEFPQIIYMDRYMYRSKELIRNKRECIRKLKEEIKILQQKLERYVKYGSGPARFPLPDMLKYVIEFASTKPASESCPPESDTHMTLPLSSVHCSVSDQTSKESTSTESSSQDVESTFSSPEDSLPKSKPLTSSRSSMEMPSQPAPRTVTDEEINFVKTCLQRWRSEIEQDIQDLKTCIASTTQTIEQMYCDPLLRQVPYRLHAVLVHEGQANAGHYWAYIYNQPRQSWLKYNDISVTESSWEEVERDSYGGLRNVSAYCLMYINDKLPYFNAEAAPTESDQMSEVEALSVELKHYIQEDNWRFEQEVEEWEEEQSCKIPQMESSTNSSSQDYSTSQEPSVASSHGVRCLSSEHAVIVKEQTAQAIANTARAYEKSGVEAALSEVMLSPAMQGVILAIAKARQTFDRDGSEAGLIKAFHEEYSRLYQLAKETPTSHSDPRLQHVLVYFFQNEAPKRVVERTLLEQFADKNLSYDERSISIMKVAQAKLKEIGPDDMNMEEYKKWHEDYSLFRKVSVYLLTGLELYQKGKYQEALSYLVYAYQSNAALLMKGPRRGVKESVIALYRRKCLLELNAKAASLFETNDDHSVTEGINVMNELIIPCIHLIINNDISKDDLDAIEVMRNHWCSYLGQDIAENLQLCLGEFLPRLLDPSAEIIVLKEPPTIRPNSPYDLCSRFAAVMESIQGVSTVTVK

[4] = molecular target: T2, DUBs and other proteins in HEK293 cells (Homo sapiens, UniProt Q9Y4E8); details: replicates A-C; for Log2 reporter intensity values: USP15: competition with ABP 2, DMSO substract (FC); for Log2 reporter intensity values: USP15, DMSO subtracted
T2 sequence (Q9Y4E8 1-981): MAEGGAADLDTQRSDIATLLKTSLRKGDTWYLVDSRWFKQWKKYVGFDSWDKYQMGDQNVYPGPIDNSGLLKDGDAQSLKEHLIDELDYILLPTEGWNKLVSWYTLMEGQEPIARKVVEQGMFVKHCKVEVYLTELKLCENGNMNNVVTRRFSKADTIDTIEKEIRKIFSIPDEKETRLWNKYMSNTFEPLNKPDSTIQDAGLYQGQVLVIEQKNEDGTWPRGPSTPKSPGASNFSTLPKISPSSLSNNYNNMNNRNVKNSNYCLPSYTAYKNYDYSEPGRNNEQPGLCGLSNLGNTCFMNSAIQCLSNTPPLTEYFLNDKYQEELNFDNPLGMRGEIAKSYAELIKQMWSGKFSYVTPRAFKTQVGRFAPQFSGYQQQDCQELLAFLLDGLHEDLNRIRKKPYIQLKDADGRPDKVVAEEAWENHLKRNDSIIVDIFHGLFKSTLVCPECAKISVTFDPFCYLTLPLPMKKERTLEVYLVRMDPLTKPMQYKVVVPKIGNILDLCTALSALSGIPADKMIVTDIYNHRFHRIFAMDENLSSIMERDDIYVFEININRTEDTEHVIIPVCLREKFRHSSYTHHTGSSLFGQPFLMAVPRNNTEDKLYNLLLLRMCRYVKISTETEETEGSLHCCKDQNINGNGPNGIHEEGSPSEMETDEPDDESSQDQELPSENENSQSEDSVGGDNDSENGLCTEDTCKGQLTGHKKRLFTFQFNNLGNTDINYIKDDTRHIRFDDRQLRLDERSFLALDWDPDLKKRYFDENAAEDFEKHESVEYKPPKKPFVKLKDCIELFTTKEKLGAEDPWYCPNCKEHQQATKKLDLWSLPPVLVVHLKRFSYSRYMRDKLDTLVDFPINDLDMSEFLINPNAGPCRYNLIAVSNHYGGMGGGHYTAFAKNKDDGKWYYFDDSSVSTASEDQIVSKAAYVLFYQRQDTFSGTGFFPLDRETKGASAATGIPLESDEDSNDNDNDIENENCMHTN

For `CC(=O)O/N=C1\C(=O)N(Cc2cc(Cl)ccc2Cl)c2ccc(Cl)cc21` [LDN], which “Log2 reporter intensity values: USP14” value ([1]; LDN at 5 μM) is on record?
The value was 1.178 and 1.18 and 1.165.

What about the “Log2 reporter intensity values: USP14” value ([1]; LDN at 25 μM) of the same compound?
Its value is 1.092 and 1.124 and 1.125.

And the “Log2 reporter intensity values” ([1]; LDN at 5 μM)?
The value was 0.2361 and 0.2386 and 0.2201.

What about the “Log2 reporter intensity values” ([1]; LDN at 25 μM) of the same compound?
The value was 0.1275 and 0.1688 and 0.1694.

What about the “Log2 reporter intensity values” ([1]; LDN_5 μM) of the same compound?
Its value is 0.1776 and 0.1796 and 0.1646.

And the “Log2 reporter intensity values” ([1]; LDN_25 μM)?
Its value is 0.0922 and 0.1239 and 0.1243.

What about the “Log2 reporter intensity values: OTULIN” value ([2]; LDN at 5 μM) of the same compound?
The value was 0.9147 and 1.064 and 1.028.

And the “Log2 reporter intensity values: OTULIN” value ([2]; LDN at 25 μM)?
The value was 0.944 and 1.042 and 0.9874.

And the “Log2 reporter intensity values” ([2]; LDN at 5 μM)?
The value was -0.1287 and 0.0891 and 0.03957.

What about the “Log2 reporter intensity values” ([2]; LDN at 25 μM) of the same compound?
The value was -0.08321 and 0.05912 and -0.01826.

What about the “Log2 reporter intensity values” ([2]; LDN_5 μM) of the same compound?
Its value is -0.08587 and 0.06318 and 0.02728.

What about the “Log2 reporter intensity values” ([2]; LDN_25 μM) of the same compound?
Its value is -0.05657 and 0.0413 and -0.01311.

And the “Log2 reporter intensity values: USP28” value ([3]; LDN at 5 μM)?
Its value is 1.021 and 0.7867 and 1.08.

What about the “Log2 reporter intensity values: USP28” value ([3]; LDN at 25 μM) of the same compound?
The value was 0.7474 and 0.7545 and 1.193.

And the “Log2 reporter intensity values” ([3]; LDN at 5 μM)?
Its value is 0.03026 and -0.3461 and 0.1114.

And the “Log2 reporter intensity values” ([3]; LDN at 25 μM)?
Its value is -0.42 and -0.4063 and 0.2545.

What about the “Log2 reporter intensity values” ([3]; LDN_5 μM) of the same compound?
The value was -0.01852 and -0.253 and 0.04055.

What about the “Log2 reporter intensity values” ([3]; LDN_25 μM) of the same compound?
The value was -0.2923 and -0.2852 and 0.1532.

What about the “Log2 reporter intensity values: USP15” value ([4]; LDN at 5 μM) of the same compound?
Its value is 1.005 and 0.9596 and 1.069.

What about the “Log2 reporter intensity values: USP15” value ([4]; LDN at 25 μM) of the same compound?
Its value is 1.047 and 0.9593 and 0.9363.

And the “Log2 reporter intensity values” ([4]; LDN at 5 μM)?
The value was 0.007561 and -0.05945 and 0.09653.

And the “Log2 reporter intensity values” ([4]; LDN at 25 μM)?
The value was 0.06615 and -0.06 and -0.09494.

And the “Log2 reporter intensity values” ([4]; LDN_5 μM)?
The value was 0.004993 and -0.04063 and 0.06894.

And the “Log2 reporter intensity values” ([4]; LDN_25 μM)?
Its value is 0.04666 and -0.041 and -0.06395.
